Test results published in patent EP4782453A1 (Beyang Therapeutics Co., Ltd., priority 2023, dated 2025).
Read-outs that look alike come from different tables or passages of the source.

Legend:
Menin-MLL = target: T1, Menin-MLL (Homo sapiens, UniProt O00255); assay: Inhibitory activity against Menin-MLL binding (fluorescence polarization); settings: 150 nM His-Menin, 15 nM FITC-MLL, 25°C for 60 min
T1 construct: His-Menin (M1-L615 end); purchased BIORTUS BP9210
T1 sequence (O00255 1-615 isoform O00255-1): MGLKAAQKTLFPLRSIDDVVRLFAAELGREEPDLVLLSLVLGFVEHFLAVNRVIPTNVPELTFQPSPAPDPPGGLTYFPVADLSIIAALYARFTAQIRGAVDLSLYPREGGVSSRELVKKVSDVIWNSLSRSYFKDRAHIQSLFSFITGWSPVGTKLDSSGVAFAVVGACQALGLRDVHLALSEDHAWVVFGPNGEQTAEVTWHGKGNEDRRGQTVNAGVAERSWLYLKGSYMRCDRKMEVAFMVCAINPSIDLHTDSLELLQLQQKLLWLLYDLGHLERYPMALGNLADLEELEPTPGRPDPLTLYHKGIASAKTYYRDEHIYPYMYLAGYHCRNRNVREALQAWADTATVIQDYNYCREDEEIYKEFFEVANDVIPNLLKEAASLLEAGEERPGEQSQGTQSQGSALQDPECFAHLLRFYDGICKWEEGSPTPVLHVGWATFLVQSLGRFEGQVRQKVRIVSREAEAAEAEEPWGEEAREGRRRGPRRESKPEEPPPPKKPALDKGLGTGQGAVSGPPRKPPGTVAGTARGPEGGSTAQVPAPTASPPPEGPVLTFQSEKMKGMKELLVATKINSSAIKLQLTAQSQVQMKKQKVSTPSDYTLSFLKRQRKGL
Method in brief: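 Fluorescence polarization competition: compound and 150 nM His-tagged menin (residues M1-L615) sit 15 min at 25 °C in pH 7.5 HEPES buffer with NaCl, DTT and BSA; 15 nM FITC-labelled MLL peptide then binds for 60 min. IC50 fitted sigmoidally from mP values, duplicate wells.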

[1] = test system: MV-4-11 (carrying MLL-AF4); assay: Inhibition of proliferation of human tumor cells (Alamar Blue, 7 days), MV-4-11; format: cell-based; settings: Homo sapiens, MV4-11, 168 h, MV-4-11 cells (carrying MLL-AF4), method calls the value GI50
Method in brief: (§1)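 Alamar Blue fluorescence at Day 7, normalised between 0.1% DMSO wells on Day 7 (high) and Day 0 (low), gives GI50. Cells grew with compound at 37°C, 5% CO2; seeding 4,000 cells/well for MV-4-11 and MOLM-13, 3,000 for KG-1a.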

[2] = test system: MOLM-13 (carrying MLL-AF9); assay: Inhibition of proliferation of human tumor cells (Alamar Blue, 7 days), MOLM-13; format: cell-based; settings: Homo sapiens, MOLM-13 cells (carrying MLL-AF9), method calls the value GI50
Method in brief: as §1

KG-1a (wild-type MLL) = assay: Inhibition of proliferation of human tumor cells (Alamar Blue, 7 days), KG-1a control cell line; format: cell-based; settings: 168 h, KG-1a cells (wild-type MLL, control cell line), method calls the value GI50
Excerpt: Experimental Example 2: Evaluation of Inhibitory Activity of Compounds Against Proliferation of Human Tumor Cells
• Human acute lymphoblastic leukemia cells MV-4-11, purchased from American Type Culture Collection, Catalog Number: CRL-9591; • Human acute myeloid leukemia cells MOLM-13, purchased from COBIOER BIOSCIENCES CO., LTD, Catalog Number: CBP60678; • Human acute myeloid leukemia cells KG-1a, purchased from American Type Culture Collection, Catalog Number: CCL-246.1; • Inverted Microscope, purchased from Olympus Tokyo; • Countess™ Automated Cell Counter, purchased from Invitrogen, Model: C10281; and • Multilabel Reader, purchased from Bio-Tek, Model: Synergy HT.
MV-4-11 cells were cultured in an IMDM medium containing 10% fetal bovine serum, KG-a cells were cultured in an IMDM medium containing 20% fetal bovine serum, or MOLM-13 cells were cultured in an RPMI-1640 medium containing 20% fetal bovine serum, each supplemented with 100 U·mL^-1 penicillin and 100 µg·mL^-1 streptomycin. These cells were cultured at 37°C with 5% CO2. The suspensions of individual cell lines were prepared in their respective media and seeded into 96-well plates at a density of 4,000 cells/well for MV-4-11 and MOLM-13 cells, or 3,000 cells/well for KG-1a cells. On the day of the experiment, a compound stock solution was diluted in a 3-fold or 4-fold gradient using DMSO. Each gradient-diluted stock solution was then further diluted 250-fold with a complete medium to prepare a series of working solutions at different concentrations. Subsequently, 100 µL of working solution (containing a 2-fold concentration series of the test compound) was added to each well, with duplicate wells set up for each concentration.
Seven days after compound addition (on Day 7), an Alamar Blue assay reagent (MCE, HY-111391 / CS-0040317) was added to measure the fluorescence intensity in each well. Wells containing the cells in the growth medium supplemented with 0.1% DMSO (Day 7) served as high-read control wells. The readouts from the wells containing the cells in the growth medium supplemented with 0.1% DMSO on the day of compound addition (Day 0) served as low-reading control well. GraphPad Prism software was used to calculate the concentration required to inhibit 50% of cell proliferation (GI50), which serves as a cell proliferation inhibition activity index.

[3] = fluorescence polarization, read-out: Menin-MLL IC50
[4] = Menin-MLL IC50, fluorescence polarization

Row | IC50 (Menin-MLL; [3]) [nM] | IC50 [1] [nM] | IC50 ([2]; 168 h) [nM] | IC50 (KG-1a (wild-type MLL)) [nM] | SMILES | IC50 (Menin-MLL; [4]) [nM] | IC50 ([2]; MOLM-13, 168 h) [nM]
1 | 10 | 11 | 45 | 20000 | CCN(C(=O)c1cc(F)ccc1-c1cc(C2CN(CC3CCN(C(C)=O)CC3)C2)cn2c(C)ncc12)C(C)C [Example 289, 2-(6-{1-[(1-acetylpiperidin-4-yl)methyl]azacyclobutan-3-yl}-3-methylimidazo[1,5-a]pyridin-8-yl)-N-ethyl-5-fluoro-N-(isopropyl)benzamide] | – | –
2 | 3.5 | 3.5 | 15 | 20000 | Cc1cncc2c(-c3ccc(F)cc3C(=O)N(CC(F)F)C(C)C)cc(CC3CN(CC4CCOCC4)C3)n12 [Example 206, N-(2,2-difluoroethyl)-5-fluoro-2-[4-methyl-6-({1-[(oxacyclohexan-4-yl)methyl]azacyclobutan-3-yl}methyl)pyrrolo[1,2-a]pyrazin-8-yl]-N-(isopropyl)benzamide] | – | –
3 | 8.5 | 2.1 | 8.3 | 5300 | COCCN(C)CCCC(C(C)C)N1CC(c2cc(-c3ccc(F)cc3C(=O)N(CC(F)F)C(C)C)c3cnc(C)n3c2)C1 (centres unmarked) [Example 149] | – | –
4 | 6 | 9 | 48 | 20000 | CCC(=O)N1CCC(CN2CC(Cc3cc(-c4ccc(F)cc4C(=O)N4CCOC[C@H]4C)c4cncc(C)n34)C2)CC1 [Example 287] | – | –
5 | 3.3 | 2.1 | 5.6 | 20000 | COCC1CN(CCC[C@H](C(C)C)N2CC(c3cc(-c4ccc(F)cc4C(=O)N4CCOC[C@H]4C)c4c(F)nc(C)n4c3)C2)C1 [Example 203] | – | –
6 | 24 | 27 | 67 | 7000 | COCCN(C)CCCC(C(C)C)N1CC(c2cc(-c3ccc(F)cc3C(=O)N3CCOC[C@H]3C)c3cnn(C)c3c2)C1 (some centres unmarked) [Example 162] | – | –
7 | 3.5 | 3.3 | 26 | 3300 | CCN(C(=O)c1cc(F)ccc1-c1cc(C2CCN(CCc3ccc(-c4cc(OC)c(OC)nn4)cc3)CC2)cn2cncc12)C(C)C [Compound 42, 2-[6-(1-{2-[4-(5,6-dimethoxypyridazin-3-yl)phenyl]ethyl}piperidin-4-yl)imidazo[1,5-a]pyridin-8-yl]-N-ethyl-5-fluoro-N-(isopropyl)benzamide] | – | –
8 | 45 | 54 | – | 20000 | CCN(C(=O)c1cc(F)ccc1-c1cc(N2CCC(NCc3ccc(-c4cc(OC)c(OC)nn4)cc3F)CC2)cn2cncc12)C(C)C [Example 20] | – | –
9 | 3.5 | 4.6 | 19 | 20000 | Cc1cncc2c(-c3ccc(F)cc3C(=O)N3CCOC[C@H]3C)cc(CC3CN(CC4CCN(C(=O)C5CC5)CC4)C3)n12 [Example 286, (3R)-4-{2-[6-({1-[(1-cyclopropanecarbonylpiperidin-4-yl)methyl]azacyclobutan-3-yl}methyl)-4-methylpyrrolo[1,2-a]pyrazin-8-yl]-5-fluorobenzoyl}-3-methylmorpholine] | – | –
10 | 11.7 | 7.9 | 39 | 11000 | COCC1CN(CCC[C@H](C(C)C)N2CC(c3cc(-c4ccc(F)cc4C(=O)N4CCOC[C@H]4C)c4cnn(C)c4c3)C2)C1 [Example 183-2] | – | –
11 | 9.5 | 17 | – | 20000 | CCN(C(=O)c1cc(F)ccc1-c1cc(C2=CCC(NCc3ccc(-c4cc(OC)c(OC)nn4)cc3)CC2)cn2cncc12)C(C)C (centres unmarked) [Example 17] | – | –

Row | SMILES | IC50 (Menin-MLL; [3]) [nM] | IC50 [1] [nM] | IC50 ([2]; 168 h) [nM] | IC50 (KG-1a (wild-type MLL)) [nM] | IC50 (Menin-MLL; [4]) [nM] | IC50 ([2]; MOLM-13, 168 h) [nM]
12 | CCN(C(=O)c1cc(F)ccc1-c1cc([C@H]2CC[C@H](NCc3ccc(-c4cc(OC)c(OC)nn4)cc3)CC2)cn2cncc12)C(C)C [Example 18-2, N-ethyl-5-fluoro-N-(isopropyl)-2-{6-[(1r,4r)-4-({[4-(5,6-dimethoxypyridazin-3-yl)phenyl]methyl}amino)cyclohexyl]imidazo[1,5-a]pyridin-8-yl}benzamide] | – | 9.4 | – | 6500 | 5.5 | 43
13 | CCN(C(=O)c1cc(F)ccc1-c1cc([C@H]2CC[C@@H](NCc3ccc(-c4cc(OC)c(OC)nn4)cc3)CC2)cn2cncc12)C(C)C [Example 18-1, N-ethyl-5-fluoro-N-(isopropyl)-2-{6-[(1s,4s)-4-({[4-(5,6-dimethoxypyridazin-3-yl)phenyl]methyl}amino)cyclohexyl]imidazo[1,5-a]pyridin-8-yl}benzamide] | – | 18 | – | 9700 | 6 | 61
14 | CCN(C(=O)c1cc(F)ccc1-c1cc([C@@H]2CCN(C[C@H]3CC[C@H](NS(=O)(=O)CC)CC3)C2)cc2cncn12)C(C)C [Example 25-1, N-ethyl-5-fluoro-N-isopropyl-2-{7-[(3S)-1-{[(1r,4r)-4-ethanesulfonamidocyclohexyl]methyl}pyrrolidin-3-yl]imidazo[1,5-a]pyridin-5-yl}benzamide] | – | 4.7 | – | 12600 | 5.7 | –
15 | Cc1ncc2c(-c3ccc(F)cc3C(=O)N(C(C)C)C3CC3)cc(N3CCN(C(=O)C4NC5CCC4CC5)CC3)cn12 [Example 72, N-cyclopropyl-5-fluoro-2-(3-methyl-6-{4-[(1R,3S,4S)-2-azabicyclo[2.2.2]octan-3-carbonyl]piperazin-1-yl}imidazo[1,5-a]pyridin-8-yl)-N-(isopropyl)benzamide] | – | 57 | – | 20000 | 54 | –
16 | CCN(C(=O)c1cc(F)ccc1-c1cc(C2(F)CCN(C[C@H]3CC[C@H](NS(=O)(=O)CC)CC3)C2)cn2c(C)ncc12)C(C)C (some centres unmarked) [Example 73, N-ethyl-5-fluoro-2-[6-(3-fluoro-1-{[(1r,4r)-4-ethanesulfonamidocyclohexyl]methyl}pyrrolidin-3-yl)-3-methylimidazo[1,5-a]pyridin-8-yl]-N-(isopropyl) benzamide] | – | 61 | – | 20000 | 28 | –
17 | CCN(C(=O)c1cc(F)ccc1-c1cc([C@H]2CCN(C[C@H]3CC[C@H](NS(=O)(=O)CC)CC3)C2)cn2cncc12)C(C)C [Example 22-1, N-ethyl-5-fluoro-N-isopropyl-2-{6-[(3R)-1-{[(1r,4r)-4-ethanesulfonamidocyclohexyl]methyl}pyrrolidin-3-yl]imidazo[1,5-a]pyridin-8-yl}benzamide] | – | 79 | – | 20000 | 23 | –
18 | CCN(C(=O)c1cc(F)ccc1-c1cc([C@@H]2CCN(C[C@H]3CC[C@H](NS(=O)(=O)CC)CC3)C2)cn2cncc12)C(C)C [Example 22-2] | – | 22 | – | 20000 | 14 | –
